Test results taken from PMC7651859, “Identification of 6-amino-1H-pyrazolo[3,4-d]pyrimidines with in vivo efficacy against visceral leishmaniasis” (RSC Medicinal Chemistry, 2020).
Converted amounts (≈) assume the structure as drawn.

Assays:
L. donovani amastigotes = assay: Ld InMac intramacrophage Leishmania donovani assay; assay type: cell-based; details: for EC50: Leishmania donovani, L. donovani amastigotes in THP-1 cells, mean of n ≥ 3, read-out: Ld InMac pEC50 (converted); for loss of potency (less active) versus comparator compound: Ld InMac, versus matched comparator
Description: (§1) For the identification of DDD853651/GSK3186899, which contained a trans-1,4-cyclohexyldiamine, a key strategy was to optimise the balance between potency in the intracellular Leishmania assay (L. donovani in THP-1 cells, referred to as Ld InMac assay[9]) and solubility.[10] In that case, we focused on 2 (Table 1), where the sulfonamide was required for potency but was poorly soluble. […] To this end, we examined a 4-aminopiperidine central unit with both sulfonamide and amide substituents (Table 1). […] We therefore selected 4 as a suitable start-point for further chemistry. […] We noted that either lengthening the linker to the aromatic ring, or removing it, led to a loss of activity (6 and 7 respectively).
(§2) Intramacrophage Leishmania donovani Assay

THP-1 cells = assay: THP-1 host cell toxicity readout of the Ld InMac assay; assay type: cell-based; details: Homo sapiens; host THP-1 cells; mean of n ≥ 3; read-out: THP-1 pEC50 (converted)
Description: as §1, §2

[1] = CAD kinetic aqueous solubility; assay type: physicochemical; details: pH 7.4, pH7.4 phosphate buffered saline
Method: CAD Aqueous Solubility 11
5µl of 10mM DMSO stock solution is diluted to 100 µ l with pH7.4 phosphate buffered saline,
equilibrated for 1 hour at room temperature and filtered through Millipore MultiscreenHTS-PCF

[2] = Stability in mouse liver microsomes (intrinsic clearance); assay type: in vitro ADME; details: mouse liver microsomal intrinsic clearance, 0.5 μM
Method: Stability in Microsomes 10
Test compound (0.5 μM) was incubated with female CD1 mouse (Xenotech) liver microsomes and their action started with addition of excess NADPH (8 mg/mL 50 mM potassium phosphate buffer, pH 7.4). Immediately, at time zero, then at 3, 6, 9, 15, and 30 min, an aliquot (50 μL) of the incubation mixture was removed and mixed with acetonitrile (100 μL) to stop the reaction.
Internal standard was added to all samples, the samples centrifuged to sediment precipitated protein, and the plates then sealed prior to UPLC-MS/MS analysis using a Xevo TQs micro (Waters Corporation, USA). XLfit (IDBS, UK) was used to calculate the exponential decay and consequently the rate constant (k) from the ratio of the peak area of test compound to internal standard at each time point. The rate of intrinsic clearance (Cl i) of each test compound was then calculated using the equation Cl i (mL/min/g liver) = k × V × microsomal protein yield, where V (mL/mg protein) is the incubation volume/mg protein added and […]
microsomal protein yield is taken as 52.5 mg protein/g liver. Verapamil (0.5 μM) was used as a positive control to confirm acceptable assay performance. […]

Compound | EC50 (L. donovani amastigotes) | EC50 (THP-1 cells) | loss of potency (less active) versus comparator compound (L. donovani amastigotes) | solubility at 1 h [1] | Cli mouse [2]
COc1ccccc1-c1n[nH]c2nc(N[C@H]3CCC[C@H](NC(=O)Cc4ccc(F)cc4F)C3)ncc12 [Compound 32] | 15.8 µM | 31.6 µM |  |  | 
COc1ccccc1-c1n[nH]c2nc(NCC3CN(C(=O)Cc4ccc(F)cc4F)C3)ncc12 [Compound 35] | > 50.1 µM | > 50.1 µM |  |  | 
O=C(Cc1ccc(F)cc1F)N1CCC[C@H](Nc2ncc3c(-c4ccccn4)n[nH]c3n2)C1 [Compound 29] | 12.6 µM | > 50.1 µM |  |  | 
CC(C)Cc1nn(C)c2nc(NC3CCN(C(=O)Cc4ccc(F)cc4F)CC3)ncc12 [Compound 24] | > 50.1 µM | > 50.1 µM | > 10 fold |  | 
O=C(CC1CC1)N1CCC(Nc2ncc3c(C4CCOCC4)n[nH]c3n2)CC1 [Compound 44] | 7.94 µM | > 50.1 µM |  | ≥ 496 µM | 0.8 ml min^–1 g^–1
CC(C)Cc1n[nH]c2nc(NC3CCN(C(=O)Cc4ccc(Cl)cc4Cl)CC3)ncc12 [Compound 9] | 10 µM | > 50.1 µM |  | 26 µM (≈ 12 µg/mL) | 30 ml min^–1 g^–1
CC(C)Oc1n[nH]c2nc(NC3CCN(C(=O)Cc4ccc(F)cc4F)CC3)ncc12 [Compound 16] | 6.31 µM | > 50.1 µM |  | 33 µM (≈ 14.2 µg/mL) | 
O=C(CC1CC1)N1CCC(Nc2ncc3c(N4CCOCC4)n[nH]c3n2)CC1 [Compound 46] | 15.8 µM | > 50.1 µM |  |  | 
CC(C)Cc1n[nH]c2nc(NC3CCN(C(=O)CCc4ccccc4)CC3)ncc12 [Compound 6] | 20 µM | > 50.1 µM |  |  | 
O=C(CC1CC1)N1CCC(Nc2ncc3c(-c4ccccn4)n[nH]c3n2)CC1 [Compound 45] | 5.01 µM | > 50.1 µM |  | ≥ 392 µM | 
C[C@@H]1[C@H](O)[C@@H](C)/C=C/C=C/C=C/C=C/C=C/C=C/C=C/[C@H](O[C@@H]2O[C@H](C)[C@@H](O)[C@H](N)[C@@H]2O)C[C@@H]2O[C@](O)(C[C@@H](O)C[C@@H](O)[C@H](O)CC[C@@H](O)C[C@@H](O)CC(=O)O[C@H]1C)C[C@H](O)[C@H]2C(=O)O [amphotericin B, reference compound] | 0.2 µM |  |  |  | 
Cn1nccc1-c1n[nH]c2nc(NC3CCN(C(=O)Cc4ccc(F)cc4F)CC3)ncc12 [Compound 19] | 3.16 µM | 20 µM | 10 fold | 30 µM (≈ 13.6 µg/mL) | 3.3 ml min^–1 g^–1
COc1ccccc1-c1n[nH]c2nc(NC3(C)CCN(C(=O)Cc4ccc(F)cc4F)CC3)ncc12 [Compound 33] | 3.98 µM | 39.8 µM |  |  | 
COc1ncccc1-c1n[nH]c2nc(NC3CCN(C(=O)Cc4ccc(F)cc4F)CC3)ncc12 [Compound 21] | 0.0794 µM | > 50.1 µM |  | 25 µM (≈ 12 µg/mL) | 15 ml min^–1 g^–1
CC(C)Cc1noc2nc(NC3CCN(C(=O)Cc4ccc(F)cc4F)CC3)ncc12 [Compound 25] | > 50.1 µM | > 50.1 µM | > 10 fold |  | 
O=C(Cc1ccc(F)cc1F)N1CCC(Nc2ncc3c(C4CCOCC4)n[nH]c3n2)CC1 [Compound 13] | 1 µM | > 50.1 µM |  | 78 µM (≈ 35.6 µg/mL) | 0.5 ml min^–1 g^–1
CC(C)Cc1n[nH]c2nc(NC3CCN(C(=O)c4ccccc4)CC3)ncc12 [Compound 7] | > 50.1 µM | > 50.1 µM |  | 291 µM (≈ 110 µg/mL) | 7 ml min^–1 g^–1
COc1ccccc1-c1n[nH]c2nc(NC3CCN(C(=O)Cc4ccc(F)c(F)c4)CC3)ncc12 [Compound 43] | 0.0251 µM | 15.8 µM |  | 53 µM (≈ 25.4 µg/mL) | 6.3 ml min^–1 g^–1

Compound | EC50 (L. donovani amastigotes) | EC50 (THP-1 cells) | loss of potency (less active) versus comparator compound (L. donovani amastigotes) | solubility at 1 h [1] | Cli mouse [2]
O=C(Cc1ccc(F)cc1F)N1CCC[C@@H](Nc2ncc3c(-c4ccccn4)n[nH]c3n2)C1 [Compound 30] | > 50.1 µM | > 50.1 µM |  |  | 
CCOC(=O)N1CCC(Nc2ncc3c(-c4ccccc4OC)n[nH]c3n2)CC1 [Compound 38] | 0.501 µM | 39.8 µM |  | 24 µM (≈ 9.51 µg/mL) | 14 ml min^–1 g^–1
CCCCCCCCCCCCCCCCOP(=O)([O-])OCC[N+](C)(C)C [miltefosine, reference compound] | 0.794 µM |  |  |  | 
CC(C)Cc1n[nH]c2nc(NC3CCN(C(=O)C(C)c4ccccc4)CC3)ncc12 (centres unmarked) [Compound 10] | 5.01 µM | > 50.1 µM |  | 140 µM (≈ 56.9 µg/mL) | 
O=C(Cc1ccc(F)cc1F)N1CCC(Nc2ncc3c(CN4CCOCC4)n[nH]c3n2)CC1 [Compound 14] | 25.1 µM | > 50.1 µM |  |  | <0.5 ml min^–1 g^–1
O=C(Cc1ccc(F)cc1F)N1CCC(Nc2ncc3c(-c4ccccn4)n[nH]c3n2)CC1 [Compound 18] | 0.794 µM | > 50.1 µM |  | 23 µM (≈ 10.3 µg/mL) | 6.7 ml min^–1 g^–1
COc1ccccc1C(=O)c1cnc(NC2CCN(C(=O)Cc3ccc(F)cc3F)CC2)nc1N [Compound 27] | 6.31 µM | 10 µM |  |  | 
COc1ccccc1-c1c[nH]c2nc(NC3CCN(C(=O)Cc4ccc(F)cc4F)CC3)ncc12 [Compound 26] | > 50.1 µM | > 50.1 µM | > 10 fold |  | 
CC(C)Cc1n[nH]c2nc(N[C@H]3CC[C@H](NC(=O)Cc4ccccc4)CC3)ncc12 [Compound 3] | > 50.1 µM | > 50.1 µM |  | 51 µM (≈ 20.7 µg/mL) | 
COc1ccccc1-c1n[nH]c2nc(NC3CCN(S(=O)(=O)CCC(F)(F)F)CC3)ncc12 [Compound 37] | 0.2 µM | > 50.1 µM |  | < 1 µM | 14 ml min^–1 g^–1
COc1ccccc1C(=O)c1cnc(NC2CCN(C(=O)Cc3ccc(F)cc3F)CC2)nc1 [Compound 28] | 6.31 µM | > 50.1 µM |  |  | 
O=C(Cc1ccc(F)cc1F)N1CCC(Nc2ncc3c(C4CC4)n[nH]c3n2)CC1 [Compound 12] | 1.26 µM | > 50.1 µM |  | 39 µM (≈ 16.1 µg/mL) | 5.0 ml min^–1 g^–1
CC(C)(CNC(=O)Cc1ccc(F)cc1F)Nc1ncc2c(-c3ccccn3)n[nH]c2n1 [Compound 36] | > 50.1 µM | > 50.1 µM |  |  | 
COc1ccccc1-c1n[nH]c2nc(NC3CCN(C(=O)OCc4ccccc4)CC3)ncc12 [Compound 39] | 0.398 µM | > 50.1 µM |  |  | 9 ml min^–1 g^–1
O=C(Cc1ccc(F)cc1F)N1CCC(CNc2ncc3c(-c4ccccn4)n[nH]c3n2)CC1 [Compound 34] | > 50.1 µM | > 50.1 µM |  |  | 
CC(C)Cc1n[nH]c2nc(N(C)C3CCN(C(=O)Cc4ccc(F)cc4F)CC3)ncc12 [Compound 22] | > 50.1 µM | > 50.1 µM | > 10 fold |  | 
COc1ccccc1-c1n[nH]c2nc(OC3CCN(C(=O)Cc4ccc(F)cc4F)CC3)ncc12 [Compound 23] | 20 µM | > 50.1 µM | > 10 fold |  | 
COc1ccccc1-c1n[nH]c2nc(N[C@H]3CCC[C@@H](NC(=O)Cc4ccc(F)cc4F)C3)ncc12 [Compound 31] | 31.6 µM | 25.1 µM |  |  | 
